Laboratory results reported in publication PMC10967572, “Induction of Oxidative Stress and Ferroptosis in Triple-Negative Breast Cancer Cells by Niclosamide via Blockade of the Function and Expression of SLC38A5 and SLC7A11” (Antioxidants, 2024).

Assays:
[1] = tested on: TNBC cells (MB231 and TXBR100); assay: Colony formation (clonogenic) assay; assay type: cell-based, human; settings: niclosamide 0.5 μM, 10 days
Text: We performed the colony formation (clonogenic) assay with different doses of niclosamide on two different TNBC cell lines. Initial seeding was done with 500 cells/well and culture was continued for 10 days with culture medium replaced with fresh medium with freshly prepared niclosamide every other day. At the end of the 10-day time period, the medium was removed and the colonies were fixed with ice-cold methanol/acetone and then stained with Giemsa stain.

SLC7A11 = molecular target: T1, SLC7A11 (Homo sapiens, UniProt Q9UPY5); assay: Direct inhibition of SLC7A11 transport activity ([3H]-glutamate uptake) in TNBC cells; assay type: cell-based
T1 construct: endogenous in cells; host or cells: TNBC cell lines MB231, TXBR100 and MB453
T1 sequence (Q9UPY5 1-501): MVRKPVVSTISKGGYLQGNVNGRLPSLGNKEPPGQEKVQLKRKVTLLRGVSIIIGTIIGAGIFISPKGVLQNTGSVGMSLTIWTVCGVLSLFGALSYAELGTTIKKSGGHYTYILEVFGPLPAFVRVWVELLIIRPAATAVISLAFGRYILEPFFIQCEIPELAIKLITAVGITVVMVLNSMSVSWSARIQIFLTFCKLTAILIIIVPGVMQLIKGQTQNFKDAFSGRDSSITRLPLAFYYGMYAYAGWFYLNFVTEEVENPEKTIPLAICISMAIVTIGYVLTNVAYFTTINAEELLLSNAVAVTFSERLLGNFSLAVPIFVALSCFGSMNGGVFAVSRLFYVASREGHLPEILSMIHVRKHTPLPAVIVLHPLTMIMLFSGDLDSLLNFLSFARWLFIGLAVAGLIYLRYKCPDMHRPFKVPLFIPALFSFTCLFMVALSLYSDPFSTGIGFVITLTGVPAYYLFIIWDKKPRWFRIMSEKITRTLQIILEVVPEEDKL
T1 sequence (P08195 1-529 partner): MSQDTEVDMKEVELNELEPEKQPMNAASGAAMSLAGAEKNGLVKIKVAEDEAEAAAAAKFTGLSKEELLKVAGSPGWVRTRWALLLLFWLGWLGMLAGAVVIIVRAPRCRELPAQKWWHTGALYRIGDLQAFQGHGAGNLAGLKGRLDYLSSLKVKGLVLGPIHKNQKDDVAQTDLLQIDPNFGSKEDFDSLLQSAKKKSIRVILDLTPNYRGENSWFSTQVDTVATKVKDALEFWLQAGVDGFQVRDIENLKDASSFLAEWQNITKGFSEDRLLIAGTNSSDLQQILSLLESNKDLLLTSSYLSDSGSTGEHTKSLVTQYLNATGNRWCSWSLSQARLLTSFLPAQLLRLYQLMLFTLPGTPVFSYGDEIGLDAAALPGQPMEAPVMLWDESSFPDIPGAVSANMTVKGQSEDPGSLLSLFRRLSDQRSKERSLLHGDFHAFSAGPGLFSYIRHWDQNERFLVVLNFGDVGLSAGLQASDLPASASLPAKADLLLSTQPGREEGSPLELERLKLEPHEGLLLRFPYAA
Experimental: However, we routinely measure the activity of this transporter by cellular uptake of [^3H]-glutamate under Na^+-free conditions. Under these conditions, SLC7A11 mediates the cellular entry of [^3H]-glutamate in exchange for intracellular unlabeled glutamate. […] Non-carrier-mediated uptake (i.e, diffusional component) was determined by measuring the uptake of [^3H]-glutamate in the presence of excess unlabeled glutamate (5 mM). The transport activity of SLC7A11 was calculated by subtracting the diffusional component from total uptake.
Confluent cultures were used for uptake measurements.

GPX4, FTH1, p-S6K = assay: Western blot of GPX4, ferritin heavy chain and p-S6K in TNBC cells; assay type: cell-based, human; settings: niclosamide 2 μM, 24 h
Experimental: Cells and tumor tissues were lysed in Pierce™ RIPA buffer (ThermoFisher Scientific, Waltham, MA, USA) supplemented with Halt™ Protease and Phosphatase Inhibitor Cocktail (ThermoFisher Scientific, Waltham, MA, USA). Homogenates were centrifuged, and supernatants were used for protein measurement via Pierce™ BCA Protein Assay Kit (ThermoFisher Scientific, Waltham, MA, USA). […] Western blot samples were prepared in Laemmli sample buffer (Bio-Rad Laboratories, Hercules, CA, USA). They were loaded onto a SDS–PAGE gel and transferred onto a PVDF membrane (Bio-Rad Laboratories, Hercules, CA, USA). The membrane was blocked and antibodies diluted in 5% nonfat dry milk (Bio-Rad Laboratories, Hercules, CA, USA) or in 5% bovine serum albumin (Irvine Scientific, Santa Ana, CA, USA) were used. Protein bands were visualized using Pierce™ ECL Western Blotting Substrate (ThermoFisher Scientific, Waltham, MA, USA) and developed on the autoradiography film (Santa Cruz, Dallas, TX, USA). Primary antibodies were purchased either from Cell Signaling (Danvers, MA, USA) [anti-GPX4 (#52455), anti-FTH (#4393), anti-HSP60 (#12165), anti-phospho-p70S6K (#9205), anti-p70S6K (#2708)] or from Abcam (Waltham, MA, USA) [Nrf2 (#ab62352)]. Secondary antibody Horseradish peroxidase-conjugated goat anti-rabbit IgG (#1706515) was purchased from Bio-Rad Laboratories (Hercules, CA, USA). For quantification of protein levels by the densitometric analysis, the experiment was carried out in triplicate and the data were collected from the resultant three Western blots.

[2] = tested on: MB231 cells and TXBR100 cells; assay: Cellular glutathione levels (GSH-Glo assay); assay type: cell-based, human; settings: niclosamide 2 μM, 24 h; MB231 and TXBR100
Experimental: Control and niclosamide-treated cells were used for measurement of cellular glutathione levels as instructed in the manufacturer’s protocol (GSH-Glo assay, Promega, Madison, WI, USA). The levels of malondialdehyde were measured using lipid peroxidation kit [Lipid Peroxidation (MDA) Assay Kit (MAK085), Millipore-sigma, St. Louis, MO, USA].

[3] = design: method as in PMID 31078739, PMID 33737681; settings: oral; cited from earlier work

- affinity for SLC7A11 relative to experimental value known for erastin (SLC7A11; niclosamide IC50 vs erastin literature value): at least three-to-four times greater
- IC50 (SLC7A11; three TNBC cell lines (MB231, TXBR100, MB453), niclosamide present only during uptake, Na+-free buffer pH 7.5): ~300 nM
SMILES: O=C(Nc1ccc([N+](=O)[O-])cc1Cl)c1cc(Cl)ccc1O [niclosamide]
- decrease in colony formation [1]: > 50%
- glutathione peroxidase 4 protein levels (GPX4, FTH1, p-S6K; MB231 and TXBR100): decreased
- ferritin levels (GPX4, FTH1, p-S6K; MB231 and TXBR100 (more pronounced in TXBR100)): lower
- p70S6K and phospho-p70S6K levels (mTOR signaling) (GPX4, FTH1, p-S6K; both TNBC cell lines): profound decrease
- decrease in glutathione levels [2]: 60–70%
- bioavailability when given orally [3]: low
